Legend:
[1] = system: SARS-CoV-2-NLuc; assay: microbe, parasite or virus in culture; type: cell-based, SARS Coronavirus 2; conditions: read-out: MPro EC50
[2] = biological target: recombinant SARS-CoV-2 Main protease (Mpro) (Severe acute respiratory syndrome coronavirus 2 (2019-nCoV) (SARS-CoV-2), UniProt P0DTD1); assay: Cov Mpro Biochemical IC50 Assay; conditions: recombinant SARS-CoV-2 Mpro 7.5 nM, fluorogenic peptide substrate 40 μM; read-out: MPro IC50

Row | SMILES | EC50 [1] | IC50 [2]
1 | COc1cc(-c2cc3[nH]c(=O)n(-c4cncc5ccccc45)c(=O)c3s2)c(Cl)cc1F (single isomer, unassigned) [Example 556, 6-(2-chloro-4-fluoro-5-methoxyphenyl)-3-(isoquinolin-4-yl)thieno[3,2-d]pyrimidine-2,4(1H,3H)-dione] | 2.04 nM | 3.41 nM
2 | COc1cc(-c2cc3[nH]c(=O)n(-c4cncc5ccccc45)c(=O)c3s2)c(Cl)cc1F (single isomer, unassigned) [Example 557, 6-(2-chloro-4-fluoro-5-methoxyphenyl)-3-(isoquinolin-4-yl)thieno[3,2-d]pyrimidine-2,4(1H,3H)-dione] | 65.4 nM | 103 nM
3 | COc1ccc(C#N)c(-c2ccc3c(=O)n(-c4cncc5ccccc45)c(=O)[nH]c3c2)c1 (single isomer, unassigned) [Example 569, 2-[3-(4-isoquinolyl)-2,4-dioxo-1H-quinazolin-7-yl]-4-methoxy-benzonitrile] | 20.5 nM | 8.41 nM
4 | COc1ccc(C#N)c(-c2ccc3c(=O)n(-c4cncc5ccccc45)c(=O)[nH]c3c2)c1 (single isomer, unassigned) [Example 570, 2-[3-(4-isoquinolyl)-2,4-dioxo-1H-quinazolin-7-yl]-4-methoxy-benzonitrile] | 700 nM | 1310 nM
5 | COc1cc(-c2cc3[nH]c(=O)n(-c4cncc5ccccc45)c(=O)c3cc2OC)c(C#N)cc1F (single isomer, unassigned) [Example 571, 5-fluoro-2-[3-(4-isoquinolyl)-6-methoxy-2,4-dioxo-1H-quinazolin-7-yl]-4-methoxy-benzonitrile] | 171 nM | 77.1 nM
6 | COc1cc(-c2cc3[nH]c(=O)n(-c4cncc5ccccc45)c(=O)c3cc2OC)c(C#N)cc1F (single isomer, unassigned) [Example 572, 5-fluoro-2-[3-(4-isoquinolyl)-6-methoxy-2,4-dioxo-1H-quinazolin-7-yl]-4-methoxy-benzonitrile] | 10.6 nM | 2.9 nM
7 | COc1cnc(Cl)c(-c2cc3[nH]c(=O)n(-c4cncc5ccccc45)c(=O)c3s2)c1 (single isomer, unassigned) [Example 628, 6-(2-chloro-5-methoxypyridin-3-yl)-3-(isoquinolin-4-yl)thieno[3,2-d]pyrimidine-2,4(1H,3H)-dione] | 15.9 nM | 3.26 nM
8 | COc1cnc(Cl)c(-c2cc3[nH]c(=O)n(-c4cncc5ccccc45)c(=O)c3s2)c1 (single isomer, unassigned) [Example 629, 6-(2-chloro-5-methoxypyridin-3-yl)-3-(isoquinolin-4-yl)thieno[3,2-d]pyrimidine-2,4(1H,3H)-dione] | 290 nM | 42.4 nM
9 | COc1cc(-c2cc3c(s2)c(=O)n(-c2cncc4ccccc24)c(=O)n3CC#N)c(Cl)cc1F (single isomer, unassigned) [Example 633, 2-[6-(2-chloro-4-fluoro-5-methoxy-phenyl)-3-(4-isoquinolyl)-2,4-dioxo-thieno[3,2-d]pyrimidin-1-yl]acetonitrile] | 3.29 nM | 3.22 nM
10 | COc1cc(-c2cc3c(s2)c(=O)n(-c2cncc4ccccc24)c(=O)n3CC#N)c(Cl)cc1F (single isomer, unassigned) [Example 634, 2-[6-(2-chloro-4-fluoro-5-methoxy-phenyl)-3-(4-isoquinolyl)-2,4-dioxo-thieno[3,2-d]pyrimidin-1-yl]acetonitrile] | 31.2 nM | 29 nM
11 | COc1cc(-c2cc3c(s2)c(=O)n(-c2cncc4ccccc24)c(=O)n3CC2(C#N)CC2)c(Cl)cc1F (single isomer, unassigned) [Example 635, 1-[[6-(2-chloro-4-fluoro-5-methoxy-phenyl)-3-(4-isoquinolyl)-2,4-dioxo-thieno[3,2-d]pyrimidin-1-yl]methyl]cyclopropanecarbonitrile] | 1.78 nM | 3.26 nM
12 | COc1cc(-c2cc3c(s2)c(=O)n(-c2cncc4ccccc24)c(=O)n3CC2(C#N)CC2)c(Cl)cc1F (single isomer, unassigned) [Example 636, 1-[[6-(2-chloro-4-fluoro-5-methoxy-phenyl)-3-(4-isoquinolyl)-2,4-dioxo-thieno[3,2-d]pyrimidin-1-yl]methyl]cyclopropanecarbonitrile] | 5.54 nM | 11.6 nM
13 | COc1cc(-c2cc3c(s2)c(=O)n(-c2cncc4ccccc24)c(=O)n3CCC#N)c(Cl)cc1F (single isomer, unassigned) [Example 637, 3-[6-(2-chloro-4-fluoro-5-methoxy-phenyl)-3-(4-isoquinolyl)-2,4-dioxo-thieno[3,2-d]pyrimidin-1-yl]propanenitrile] | 1.85 nM | 3.48 nM
14 | COc1cc(-c2cc3c(s2)c(=O)n(-c2cncc4ccccc24)c(=O)n3CCC#N)c(Cl)cc1F (single isomer, unassigned) [Example 638, 3-[6-(2-chloro-4-fluoro-5-methoxy-phenyl)-3-(4-isoquinolyl)-2,4-dioxo-thieno[3,2-d]pyrimidin-1-yl]propanenitrile] | 60.6 nM | 192 nM
15 | COc1cc(-c2cc3[nH]c(=O)n(-c4cncc5cnn(C)c45)c(=O)c3s2)c(Cl)cc1F (single isomer, unassigned) [Example 639, 6-(2-chloro-4-fluoro-5-methoxy-phenyl)-3-(1-methylpyrazolo[4,3-c]pyridin-7-yl)-1H-thieno[3,2-d]pyrimidine-2,4-dione] | 173 nM | 114 nM
16 | COc1cc(-c2cc3[nH]c(=O)n(-c4cncc5cnn(C)c45)c(=O)c3s2)c(Cl)cc1F (single isomer, unassigned) [Example 640, 6-(2-chloro-4-fluoro-5-methoxy-phenyl)-3-(1-methylpyrazolo[4,3-c]pyridin-7-yl)-1H-thieno[3,2-d]pyrimidine-2,4-dione] | 3.48 nM | < 4.26 nM
17 | COc1cc(-c2cc3c(s2)c(=O)n(-c2cncc4cnn(C)c24)c(=O)n3CCC#N)c(Cl)cc1F (single isomer, unassigned) [Example 644, 3-[6-(2-chloro-4-fluoro-5-methoxy-phenyl)-3-(1-methylpyrazolo[4,3-c]pyridin-7-yl)-2,4-dioxo-thieno[3,2-d]pyrimidin-1-yl]propanenitrile] | 1.55 nM | 3.1 nM
18 | COc1cc(-c2cc3c(s2)c(=O)n(-c2cncc4cnn(C)c24)c(=O)n3CCC#N)c(Cl)cc1F (single isomer, unassigned) [Example 645, 3-[6-(2-chloro-4-fluoro-5-methoxy-phenyl)-3-(1-methylpyrazolo[4,3-c]pyridin-7-yl)-2,4-dioxo-thieno[3,2-d]pyrimidin-1-yl]propanenitrile] | 36 nM | 43.5 nM
19 | COc1cc(-c2cc3[nH]c(=O)n(-c4cncc5cccc(F)c45)c(=O)c3s2)c(Cl)cc1F (single isomer, unassigned) [Example 899, 6-(2-chloro-4-fluoro-5-methoxyphenyl)-3-(5-fluoroisoquinolin-4-yl)thieno[3,2-d]pyrimidine-2,4(1H,3H)-dione] | 3.13 nM | 4.03 nM
20 | COc1cc(-c2cc3[nH]c(=O)n(-c4cncc5cccc(F)c45)c(=O)c3s2)c(Cl)cc1F (single isomer, unassigned) [Example 900, 6-(2-chloro-4-fluoro-5-methoxyphenyl)-3-(5-fluoroisoquinolin-4-yl)thieno[3,2-d]pyrimidine-2,4(1H,3H)-dione] | 172 nM | 334 nM

From patent US20240116946A1 (Gilead Sciences, Inc., priority 2022, published 2024)
